Test results as given in ChEMBL document CHEMBL3885861, “Open TG-GATES”.

Organism: Rattus norvegicus
Experiment: Open TG-GATES - Regimen: Single
Format: toxicity, organism-based, Sprague-Dawley
Parameters: regimen Single, gender Male, age 6 weeks
Details: in vivo, po, 0 mg/kg, route gavage, dose level Control; for APTT / Bas / Eos / Fbg / Hb / Ht / Lym / MCH / MCHC / MCV / Mono / Neu / PT / Plat / RBC / Ret / WBC: tissue Blood; for KIDNEY_L / KIDNEY_R / KIDNEY_TOTAL: tissue Kidney; for LIVER: tissue Liver; for A/G / ALP / ALT / AST / BUN / CRE / Ca / Cl / DBIL / GLC / IP / K / LDH / Na / PL / RALB / TBIL / TC / TG / TP / gamma-GTP: tissue Plasma

Structure (SMILES): CN(C)[C@@H]1C(O)=C(C(N)=O)C(=O)[C@@]2(O)C(O)=C3C(=O)c4c(O)cccc4[C@@](C)(O)[C@H]3C[C@@H]12 [TETRACYCLINE]
- TERMINAL_BW (3 h): 187 g
- APTT (3 h): 16.4 s
- Bas (3 h): 0%
- Eos (3 h): 0.6%
- Fbg (3 h): 206.2 mg/dL
- Hb (3 h): 13.1 g/dL
- Ht (3 h): 39.4%
- Lym (3 h): 78.4%
- MCH (3 h): 22 pg
- MCHC (3 h): 33.1%
- MCV (3 h): 66.3 fL
- Mono (3 h): 8.6%
- Neu (3 h): 12.8%
- PT (3 h): 12.1 s
- Plat (3 h): 105.5 x10_4/uL
- RBC (3 h): 595.2 x10_4/ul
- Ret (3 h): 11%
- WBC (3 h): 95.1 x10_2/uL
- KIDNEY_L (3 h): 0.9 g
- KIDNEY_R (3 h): 0.9 g
- KIDNEY_TOTAL (3 h): 1.8 g
- LIVER (3 h): 9 g
- A/G (3 h): 2.2
- ALP (3 h): 813 IU/L
- ALT (3 h): 35.8 IU/L
- AST (3 h): 70.8 IU/L
- BUN (3 h): 12.6 mg/dL
- CRE (3 h): 0.5 mg/dL
- Ca (3 h): 11.1 mg/dL
- Cl (3 h): 103.6 meq/L
- DBIL (3 h): 0.02 mg/dL
- GLC (3 h): 187.8 mg/dL
- IP (3 h): 10.2 mg/dL
- K (3 h): 5.2 meq/L
- LDH (3 h): 87.6 IU/L
- Na (3 h): 137.6 meq/L
- PL (3 h): 143.2 mg/dL
- RALB (3 h): 3.7 g/dL
- TBIL (3 h): 0.4 mg/dL
- TC (3 h): 84 mg/dL
- TG (3 h): 42.4 mg/dL
- TP (3 h): 5.4 g/dL
- gamma-GTP (3 h): 1.4 IU/L
- TERMINAL_BW (6 h): 181.3 g
- APTT (6 h): 16.7 s
- Bas (6 h): 0%
- Eos (6 h): 0.8%
- Fbg (6 h): 200.2 mg/dL
- Hb (6 h): 13.1 g/dL
- Ht (6 h): 39.1%
- Lym (6 h): 81.6%
- MCH (6 h): 22 pg
- MCHC (6 h): 33.4%
- MCV (6 h): 65.9 fL
- Mono (6 h): 5.2%
- Neu (6 h): 13%
- PT (6 h): 12.3 s
- Plat (6 h): 101.8 x10_4/uL
- RBC (6 h): 593.8 x10_4/ul
- Ret (6 h): 10.7%
- WBC (6 h): 118.1 x10_2/uL
- KIDNEY_L (6 h): 0.8 g
- KIDNEY_R (6 h): 0.8 g
- KIDNEY_TOTAL (6 h): 1.7 g
- LIVER (6 h): 8.3 g
- A/G (6 h): 2.2
- ALP (6 h): 900.4 IU/L
- ALT (6 h): 36.2 IU/L
- AST (6 h): 68.8 IU/L
- BUN (6 h): 9 mg/dL
- CRE (6 h): 0.4 mg/dL
- Ca (6 h): 10.6 mg/dL
- Cl (6 h): 105.2 meq/L
- DBIL (6 h): 0.018 mg/dL
- GLC (6 h): 180 mg/dL
- IP (6 h): 10.5 mg/dL
- K (6 h): 5.2 meq/L
- LDH (6 h): 77.6 IU/L
- Na (6 h): 136.4 meq/L
- PL (6 h): 130.4 mg/dL
- RALB (6 h): 3.7 g/dL
- TBIL (6 h): 0.3 mg/dL
- TC (6 h): 76 mg/dL
- TG (6 h): 36 mg/dL
- TP (6 h): 5.3 g/dL
- gamma-GTP (6 h): 1.2 IU/L
- TERMINAL_BW (9 h): 179.4 g
- APTT (9 h): 16.9 s
- Bas (9 h): 0%
- Eos (9 h): 0.6%
- Fbg (9 h): 211.6 mg/dL
- Hb (9 h): 13.3 g/dL
- Ht (9 h): 40.3%
- Lym (9 h): 78%
- MCH (9 h): 21.7 pg
- MCHC (9 h): 33%
- MCV (9 h): 65.7 fL
- Mono (9 h): 6.2%
- Neu (9 h): 15.4%
- PT (9 h): 12.8 s
- Plat (9 h): 98.9 x10_4/uL
- RBC (9 h): 613.2 x10_4/ul
- Ret (9 h): 9.1%
- WBC (9 h): 72 x10_2/uL
- KIDNEY_L (9 h): 0.9 g
- KIDNEY_R (9 h): 0.9 g
- KIDNEY_TOTAL (9 h): 1.8 g
- LIVER (9 h): 7.5 g
- A/G (9 h): 2.3
- ALP (9 h): 844.2 IU/L
- ALT (9 h): 32.6 IU/L
- AST (9 h): 64.2 IU/L
- BUN (9 h): 10.6 mg/dL
- CRE (9 h): 0.4 mg/dL
- Ca (9 h): 10.4 mg/dL
- Cl (9 h): 106.2 meq/L
- DBIL (9 h): 0.024 mg/dL
- GLC (9 h): 176.4 mg/dL
- IP (9 h): 10.6 mg/dL
- K (9 h): 5.3 meq/L
- LDH (9 h): 81.2 IU/L
- Na (9 h): 138.8 meq/L
- PL (9 h): 123.6 mg/dL
- RALB (9 h): 3.8 g/dL
- TBIL (9 h): 0.3 mg/dL
- TC (9 h): 71.2 mg/dL
- TG (9 h): 23.6 mg/dL
- TP (9 h): 5.5 g/dL
- gamma-GTP (9 h): 1.4 IU/L
- TERMINAL_BW (24 h): 200.1 g
- APTT (24 h): 16.6 s
- Bas (24 h): 0%
- Eos (24 h): 0.8%
- Fbg (24 h): 205.2 mg/dL
- Hb (24 h): 13.2 g/dL
- Ht (24 h): 39.7%
- Lym (24 h): 76.6%
- MCH (24 h): 22.1 pg
- MCHC (24 h): 33.2%
- MCV (24 h): 66.7 fL
- Mono (24 h): 8.2%
- Neu (24 h): 14.8%
- PT (24 h): 11.9 s
- Plat (24 h): 112.5 x10_4/uL
- RBC (24 h): 596.4 x10_4/ul
- Ret (24 h): 9.8%
- WBC (24 h): 81.9 x10_2/uL
- KIDNEY_L (24 h): 0.9 g
- KIDNEY_R (24 h): 0.9 g
- KIDNEY_TOTAL (24 h): 1.8 g
- LIVER (24 h): 10.2 g
- A/G (24 h): 2.3
- ALP (24 h): 1007 IU/L
- ALT (24 h): 45.4 IU/L
- AST (24 h): 76.6 IU/L
- BUN (24 h): 17.4 mg/dL
- CRE (24 h): 0.5 mg/dL
- Ca (24 h): 11.1 mg/dL
- Cl (24 h): 105.2 meq/L
- DBIL (24 h): 0.008 mg/dL
- GLC (24 h): 188.6 mg/dL
- IP (24 h): 9 mg/dL
- K (24 h): 4.9 meq/L
- LDH (24 h): 87.6 IU/L
- Na (24 h): 140.2 meq/L
- PL (24 h): 155 mg/dL
- RALB (24 h): 3.9 g/dL
- TBIL (24 h): 0.4 mg/dL
- TC (24 h): 84.2 mg/dL
- TG (24 h): 69.2 mg/dL
- TP (24 h): 5.7 g/dL
- gamma-GTP (24 h): 0.8 IU/L
